According to US9650405B2, “Modified sophorolipids as oil solubilizing agents” (Polytechnic Institute of New York University, priority 2010, dated 2017):
“And” between values parts separate entries of the source, which are not always exact repeats. Equal entries are not always repeated.

Assays:
[1] = Solubility of MSLs in water
Excerpt: If the material precipitates upon cooling or was to some extent insoluble, the insoluble material was separated by filtration, dried and weighed.

[2] = Emulsion type: dilution test and oil soluble dye staining; format: physicochemical; details: 2%-by-weight relative to water phase, oil/water 5/5 and 7/3
Experimental: In this test the emulsion is diluted either with oil (O) or water (W). If the emulsion is O/W type and it is diluted with water, it will remain stable as water is the dispersion medium. However, if the emulsion is O/W type and it is diluted with oil, the emulsion will break as oil and water are not miscible with each other. […] Emulsions of the O/W type have separated layers after dilution with pure oil but form a homogenous phase when diluted by water. Unless otherwise specified, the emulsion type formed by MSLs were oil in water.
In FIG. 13B, the tube on the left was diluted with 1 mL of oil whereas the tube on right was diluted with water. Visual observation of the tubes in FIG. 13B supports that the emulsions formed are indeed O/W emulsions.
Oil Red O was applied as an oil soluble dye and emerald green as water soluble dye in the process of emulsion preparation. Observations of emulsions were made before and after staining under optical microscope at 400× magnification (FIG. 14). […] The formation of O/W emulsions and not W/O emulsions with this set of MSL compounds would not be obvious to one skilled in the art. We believe that O/W emulsions are formed by this set of MSLs due to that large sophorose polar head groups requires relatively more space than the lipid tails and, therefore self-assemble into spherical type structures where disaccharide groups are locating outside the droplets.

[3] = SL-esters; from earlier publication in Colloids and surfaces, 2004, 240, 75; cited from earlier work
[4] = Emulsion droplet size distribution, Coulter LS 230 analyzer; format: physicochemical; details: paraffin oil-to-water 7:3 v/v, 25° C.
Experimental: Emulsified oil droplet size (average and standard deviation) was measured after suitable dilution of the emulsion phase using a Coulter LS 230 analyzer. […] Relative to natural and lactonic SL, selected MSLs show improved properties as emulsifiers on paraffin oil.
After being aged for 3-months, emulsified oil droplet size (average and standard deviation) was measured after suitable dilution of the emulsion phase using a Coulter LS 230 analyzer and the results are listed in Table 5. […] However, increasing the surfactant concentration from 1 to 2% did result in substantially smaller emulsion-phase droplet sizes. […] This is evidence that MSL's can stabilize oil phases greatly decreasing their tendency to undergo coalescence. […] It follows that the results of 3-month aging studies support the utility of selected MSLs for formation and stabilization of oil-in-water emulsions of paraffin oil phases. One skilled in the art would expect that the ability of these MSLs to stabilize paraffin oil phases teaches that they would also stabilize oil phases of similar structure.

[5] = Emulsion stability based on phase separation; format: physicochemical; details: for emulsion layer volume-%, one month / emulsion layer volume-%, start: oil/water 5/5, 2%-by-weight; for emulsion layer volume-%, one month: one month at room temperature; for emulsion layer volume-%, start / emulsion layer, start: start of aging; for emulsion phase, one month / emulsion layer, start: oil/water 7/3, 2%-by-weight; for emulsion phase, one month: one month aging; for emulsion layer percentage: paraffin oil/water 5/5, 2%-by-weight emulsifier, after 24 hours at 25° C.
[6] = Emulsion viscosity measurement; format: physicochemical
Experimental: Viscosity was measured at 25° C. with increasing shear rate from 1 S^−1 to 750 S^−1. The viscosity change was monitored for aging times up to 3 months. For all samples, the paraffin oil/water ratio is 7/3 and the surfactant concentrations studied were 0.5%, 1% to 2%-by-weight relative to the oil phase. FIG. 19 presents the viscosity change with shear rate for different aging times. […] The emulsion tested was prepared using 2%-by-weight SL-butyl ester relative to paraffin oil. Viscosity decreases with increased shear rate implying the emulsion follows shear shinning. Furthermore, viscosity decreased with increased storage time. […] This change is consistent with the small increase in oil phase particle size (1.7 to 2.1 μm) with aging from 1 day to 3-months (Tables 4 and 5).
Values of ηlow decreased with storage time to various extents that are dependent on the MSL compound used to stabilize the emulsion. […] The relative ability of different MSL structures to stabilize emulsions and thereby decrease the extent of decrease in viscosity as a function of aging time would not be predictable by one skilled in the art. The behavior as a function of MSL structure is related to emulsion dispersed phase droplet size. That is, the smaller the change in droplet size, the less decrease in emulsion viscosity occurs with increased aging time. Smaller changes in droplet size reflects the ability of the emulsifier to better stabilize particles. For example, the viscosity of the emulsion stabilized by SL-butyl amide decreased by 65% (from 344 Pas to 120 Pas) whereas the viscosity of the emulsion stabilized by SL-hexyl ester decreased by 20% (from 457 Pas to […]).
The viscosity was measured 24 hours after emulsion preparation. The viscosity increased with increasing surfactant concentration. Such behavior could not have been predicted by one skilled in the art without the teaching provided in this disclosure. The extent of viscosity change with surfactant concentration is related to the interfacial free energy at the droplet surface that reduces with the increase of surfactant concentration.

[7] = oil/water 7/3, 1% MSL, shear rate 1 S^−1
[8] = oil/water 7/3, 2%-by-weight relative to paraffin oil, 25° C.

Q: Which results are given for CCCCCCOC(=O)CCCCCCCC=CCCCCCCC(C)OC1OC(CO)C(O)C(O)C1OC1OC(CO)C(O)C(O)C1O (stereo not drawn) [Compound 16, SL-Hexyl Ester]?
A: Solubility [1]: <5000 µg/mL; emulsion type by Oil Red O staining [2]: O/W; CMC Range [3]: 3-4 10^−6M; MST (minimum surface tension) [3]: 34.0 mN/m; Average droplet size ([4]; 0.5 weight %, 24 hours): 2.3 ± 0.4 μm; Average droplet size ([4]; 0.5 weight %, aged 3-months): 2.9 ± 0.2 μm; Average droplet size ([4]; 1 weight %, 24 hours): 2.1 ± 0.3 μm; Average droplet size ([4]; 1 weight %, aged 3-months): 2.5 ± 0.1 μm; Average droplet size ([4]; 2 weight %, 24 hours): 1.7 ± 0.2 μm; Average droplet size ([4]; 2 weight %, aged 3-months): 1.9 ± 0.1 μm; emulsion layer volume-%, one month [5]: 65%; emulsion layer volume-%, start [5]: 70%; emulsion phase, one month [5]: 85%; emulsion layer, start [5]: 95%; emulsion layer percentage [5]: 65%; low shear emulsion viscosity, after aging period [6, 7]: 459 Pas; low shear emulsion viscosity, before aging [6, 7]: 457 Pas; viscosity decrease over the aging period [6, 7]: 20%

Q: For CCCCOC(=O)CCCCCCCC=CCCCCCCC(C)OC1OC(CO)C(O)C(O)C1OC1OC(CO)C(O)C(O)C1O (stereo not drawn) [Compound 8, SL-Butyl Ester], which Solubility [1] is on record?
A: Its Solubility is less than 3000 µg/mL.

Q: What about the “emulsion type by Oil Red O staining” value [2] of the same compound?
A: Its value is “O/W”.

Q: And the “CMC Range” value [3]?
A: The value was 7-9 10^−6M.

Q: And the “MST (minimum surface tension)” value [3]?
A: The value was 34.5 mN/m.

Q: And the Average droplet size ([4]; 0.5 weight %, 24 hours)?
A: Its Average droplet size is 2.5 ± 0.3 μm.

Q: What about the Average droplet size ([4]; 0.5 weight %, aged 3-months) of the same compound?
A: Its Average droplet size is 3.5 ± 0.4 μm.

Q: And the Average droplet size ([4]; 1 weight %, 24 hours)?
A: Its Average droplet size is 2.4 ± 0.3 μm.

Q: What about the Average droplet size ([4]; 1 weight %, aged 3-months) of the same compound?
A: The Average droplet size was 3.1 ± 0.5 μm.

Q: And the Average droplet size ([4]; 2 weight %, 24 hours)?
A: The Average droplet size was 1.7 μm and 1.7 ± 0.1 μm.

Q: And the Average droplet size ([4]; 2 weight %, aged 3-months)?
A: Its Average droplet size is 2.1 μm and 2.1 ± 0.4 μm.

Q: What about the “emulsion layer volume-%, one month” value [5] of the same compound?
A: The value was 50%.

Q: What about the “emulsion layer volume-%, start” value [5] of the same compound?
A: The value was 65%.

Q: What about the “emulsion phase, one month” value [5] of the same compound?
A: The value was 90%.

Q: What about the “emulsion layer, start” value [5] of the same compound?
A: Its value is 95%.

Q: What about the emulsion layer percentage [5] of the same compound?
A: Its emulsion layer percentage is 55%.

Q: What about the “emulsion viscosity at shear rate 1S^−1, after 3 months” value [6, 8] of the same compound?
A: The value was 376 Pas.

Q: And the “emulsion viscosity at shear rate 1S^−1, before aging” value [6, 8]?
A: Its value is 465 Pas.

Q: And the “viscosity decrease after 3 months” value ([6]; oil/water 7/3, 2%-by-weight, shear rate 1S^−1)?
A: The value was 19.1%.
